Entries after “also recorded” stand apart in the source; their conditions may differ.
Key:
[1] = biological target: mannose binding protein (MBP) of Acanthamoeba (Acanthamoeba castellanii, UniProt Q6J288); test: Solid-phase assay of 35S-labeled Acanthamoeba binding to Man-BSA coated wells; design: species or system Acanthamoeba strain MEEI 0184 (A. castellani); conditions: for Inhibition of Acanthamoeba binding to Man-BSA: at 100 mM; for Inhibition of amoebic binding to Man-BSA / affinity of amoebic lectin: no concentration stated
Description: The Acanthamoeba strain MEEI 0184 (A. castellani based on morphological characteristics) was derived from an infected human cornea and used throughout this study. ATCC strain 30868 should have similar properties. The parasites were axenically cultured in PYG medium. A solid-phase assay characterized the sugar binding properties of the mannose binding protein (MBP) of Acanthamoeba (Z. Yang et al., Infect. Immun. 65:439-445, 1997). Briefly, wells of microtiter plates were coated with bovine serum albumin-α-D-mannopyranosyl phenylisothiocyanate (Man-BSA, 15-25 moles of α-D-mannopyranoside/mole albumin, 0.03 μg/ml, 50μl/well in 0.1 M sodium carbonate buffer, pH 9.6, 4° C. overnight). Nonspecific binding was blocked with 1% BSA in phosphate buffered saline (PBS, 1 hour, room temperature). After adding a 50-μl aliquot of ^35 S-labeled Acanthamoeba (5×10^6 cells/ml in PBS; 1 to 2 cpm/parasite, >95% trophozoites) to each well, the plates were incubated for 2 hours at room temperature. After rinsing the cells with PBS to remove unbound Acanthamoeba, 0.1 ml of 2% sodium dodecyl sulfate (SDS) was added to each well, and the radioactivity in aliquots of solubilized material was determined in a scintillation counter.

[2] = tested on: corneal epithelium
Description: The effect of some saccharides on Acanthamoeba-induced CPE on primary cultures of corneal epithelium was also determined (see Table 1).

[3] = tested on: Acanthamoeba; test: Acanthamoeba-induced cytopathic effect (CPE) assay, immortalized corneal epithelial cultures; assay type: cell-based; conditions: for Inhibition of amoeba-induced CPE: no concentration stated
Description: Corneal epithelial cells with extended life span were also produced.
(§1) To characterize the role of carbohydrate-mediated host-parasite interactions in the Acanthamoeba-induced cytotoxicity of host cells, in vitro cytopathic assays were performed using both primary and immortalized cultures of corneal epithelium as host cells. Immortalized cells were assayed as confluent cultures in 24-well plates, and primary cells were assayed as confluent cells in 35-mm dishes or 6-well plates.
(§2) The plates were incubated at 37° C. in a CO2 incubator and periodically examined under a phase-contrast microscope for the presence of cell-free plaques in the monolayer for up to 28-30 hours. Control wells contained host cells without the parasites. At the end of the incubation period, the cultures were stained with Giemsa (Diff-Quik, Dade Diagnostic Inc., Aguada, PR). Approximate cell density in each well was estimated by scanning the stained plates in a calibrated, computer-assisted Bio-Image Scanner (Millipore, Ann Arbor, Mich.). Cytopathic effect (CPE) was expressed as percentage of the optical density by the following formula: [formula]
The CPE assays were performed in the SFB media containing one or more saccharides to be tested.
After staining with Giemsa, percent cell loss in each well was calculated based on the optical density in each well.

[4] = tested on: Acanthamoeba; test: Acanthamoeba-induced CPE assay, primary cultures of corneal epithelium; assay type: cell-based; conditions: primary cultures as target cells
Description: In vitro cytopathic assays were performed using cell cultures of corneal epithelium as target cells. Primary cell cultures of rabbit corneal epithelium were prepared according to published protocols (M. M. Jumblatt, Invest. Opthalmol. Visual Sci. 24:1139-43, 1983) using rabbit eyes from Pel-Freez Biologicals (N. Panjwani et al., Invest. Opthalmol. Visual Sci. 31:689-695, 1990) (Rogers, AK). Generally, seventy-five eyes were processed at a time. Primary cultures have limited life span and can only be passaged 2 to 3 times without significant alteration in cell morphology.
as §1
as §2, with “The parasites (>95% trophozoites) were rinsed three times in a serum-free Eagle's minimum essential medium supplemented with 0.4% bovine serum albumin (SFB) and aliquots of the parasite suspension (0.2×10^5 to 1×10^6 parasites/ml SFB medium, 300 μl/well for 24-well plates and 500 μl/well for 6-well plates or 35-mm dishes) were added to wells of confluent epithelial cultures which had been rinsed and preincubated in SFB medium for 2 hours. The” for “The”
Primary cultures were less susceptible to amoeba-induced CPE, requiring 1×10^6 parasites/ml to completely destroy the monolayer within 24 hours. This parasite concentration was five times higher than that required to produce the same effect when immortalized cultures were used as target host cells.

[5] = tested on: Acanthamoeba-conditioned medium (ACM); test: CPE assay with Acanthamoeba-conditioned medium (ACM); assay type: cell-based
Description: To determine whether the mechanism modulating the CPE produced by intact amoeba and amoeba-conditioned medium (ACM) are distinct, CPE and assays were also performed using ACM in the presence and the absence of saccharides. To produce ACM, exponentially growing parasites (>95% trophozoites) in PYG media (Proteose Peptone-yeast extract-glucose , J. T. Bornes et al., J. Parasitol. 56:904-906, 1970) were rinsed twice with SFB medium and incubated in serum-free SFB medium at concentrations between 2×10^5 to 1×10^6 cells/ml in a CO2 incubator for 24 hours. After removing the parasites by centrifugation, each supernatant was analyzed for its ability to induce CPE. Saccharides (α-Man and GIcNAc, 50 mM) were added either to the ACM after it was produced or to serum-free medium used to produce an ACM. The ACM produced in the presence of the saccharides was also analyzed after removal of the saccharides by centrifugation through Centricon 3 microconcentrators (Amicon Inc., Beverly, Mass.).
To determine the role of the parasitic secretory factors in the cytopathogenic mechanism, chromium release and CPE assays were performed using ACM. In this study, parasites were incubated in the SFB media for 24 hours, centrifuged to remove parasites and the conditioned medium was tested for its ability to produce cytolysis and CPE. The ACM produced remarkable CPE. […] Approximately 6 to 8 hours following the incubation of the monolayer with the ACM, the cell sheet at the edges of the monolayer began to lift and roll inwards and eventually the entire monolayer lifted en bloc from the dish. These observations were similar to those seen when the monolayers were incubated with trophozoites in the presence of α-Man. Unlike the CPE induced by intact amoeba, the CPE induced by the ACM was not inhibited by either α-Man or GlcNAc when the sugars were added to the ACM after it was produced. In the next set of experiments, ACM was produced in the presence of α-Man or GIcNAc and was tested for CPE-inducing activity. […] In addition, the filtrate and retentate obtained after filtering the ACM in Centricon 3 microconcentrators were tested for CPE-inducing activity. When the ACM was produced in the absence of either sugar, substantially all of the CPE-inducing activity was found in the retentate obtained after Centricon filtration.

[6] = tested on: Acanthamoeba; test: 51Cr release assay of amoeba-induced cytolysis of corneal epithelium; assay type: cell-based
Description: Chromium release experiments were performed to confirm the absence or occurrence of cytolysis. Visually, cell plaques or bare spots in a culture can indicate either cell loss by cytolysis, or separation of the cell from the culture surface, wherein detached cells, although initially viable, subsequently die. Cell lysis was quantified by measuring ^51 Cr release from prelabeled cells. After incubating confluent monolayer cultures of corneal epithelium in 24-well plates in cell culture medium containing Na^51 CrO4 (460 mCi/mg, 12 μCi/ml) for 18-20 hours, the cells were thoroughly rinsed and incubated with Acanthamoeba (1×10^6 parasites/ml SFB media). The four groups were (i) Acanthamoeba in media alone, (ii) Acanthamoeba in media containing α-Man, (iii) Acanthamoeba in media containing GlcNAc, and (iv) Acanthamoeba condition media. When approximately 50-70% cell loss occurred based on phase contrast microscopy, aliquots of cell-free conditioned medium from each well were analyzed. Supernatants from the four wells in each group were pooled before analysis. Percent specific release was calculated using E/T×100, where E is CPM released in test well minus CPM released in control (parasite-free) well and T is the total CPM (CPM cells+CPM supernatant in control wells). "CPM cells" was determined by incubating control wells with 0.5% Triton X-100. Conditioned media from each well was also analyzed for lactate dehydrogenase (LDH) release using an LDH assay kit (Sigma).

[7] = tested on: Acanthamoeba; test: Adhesion of amoebae to corneal epithelial cell monolayer; assay type: cell-based; conditions: saccharide present in media; listed as GlcNAc
[8] = biological target: proteinases P1, P2, P3, P4; test: Zymography with proteinase inhibitors, components P1-P4; assay type: biochemical, Acanthamoeba; conditions: inhibitor 1 mM
Description: (§3) To characterize the mechanism by which the mannose-mediated host-parasite interactions influence the amoeba-induced cytolysis and/or cytopathic effect, conditioned media obtained by incubating amoebae with primary cultures of corneal epithelium in the presence and absence of α-Man for 6 to 8 hours were analyzed by zymography. Media conditioned by only Acanthamoeba or only epithelial cells were also analyzed. Zymography was performed using separating gels containing 10% acrylamide and 2 mg/ml gelatin, essentially as described by D. E. Kleiner et al. (Anal Biochem. 218:325-329, 1994). Samples were diluted in the electrophoresis sample buffer (U. K. Laemmli, Nature 227:680-685, 1970) without mercaptoethanol and were applied to the gels. After electrophoresis, proteinases separated on the gels were renatured by incubating the gels in 2.5% Triton X-100 in 50 mM Tris-HCl, pH 7.5 to remove SDS. After incubating the gels for 18 hours in a developing buffer (50 mM Tris-HCl, pH 7.5 containing 10 mM CaCl2), the gels were stained with Coomassie brilliant blue. Areas of digestion were visualized as non-staining regions. In some experiments, samples were pre-treated with phenylmethylsulfonyl fluoride (PMSF, 1 mM), an inhibitor of […] for one hour prior to electrophoresis, or 1,10-phenanthroline (1 mM), an inhibitor of metalloproteinases, was added to the developing buffer.

[9] = tested on: proteinases E1, E2; test: Zymography with proteinase inhibitors, media conditioned by epithelial cells alone; assay type: biochemical, rabbit; conditions: inhibitor 1 mM
Description: as §3

mannose binding protein (MBP) of Acanthamoeba, sequence (Q6J288 entry or part of it): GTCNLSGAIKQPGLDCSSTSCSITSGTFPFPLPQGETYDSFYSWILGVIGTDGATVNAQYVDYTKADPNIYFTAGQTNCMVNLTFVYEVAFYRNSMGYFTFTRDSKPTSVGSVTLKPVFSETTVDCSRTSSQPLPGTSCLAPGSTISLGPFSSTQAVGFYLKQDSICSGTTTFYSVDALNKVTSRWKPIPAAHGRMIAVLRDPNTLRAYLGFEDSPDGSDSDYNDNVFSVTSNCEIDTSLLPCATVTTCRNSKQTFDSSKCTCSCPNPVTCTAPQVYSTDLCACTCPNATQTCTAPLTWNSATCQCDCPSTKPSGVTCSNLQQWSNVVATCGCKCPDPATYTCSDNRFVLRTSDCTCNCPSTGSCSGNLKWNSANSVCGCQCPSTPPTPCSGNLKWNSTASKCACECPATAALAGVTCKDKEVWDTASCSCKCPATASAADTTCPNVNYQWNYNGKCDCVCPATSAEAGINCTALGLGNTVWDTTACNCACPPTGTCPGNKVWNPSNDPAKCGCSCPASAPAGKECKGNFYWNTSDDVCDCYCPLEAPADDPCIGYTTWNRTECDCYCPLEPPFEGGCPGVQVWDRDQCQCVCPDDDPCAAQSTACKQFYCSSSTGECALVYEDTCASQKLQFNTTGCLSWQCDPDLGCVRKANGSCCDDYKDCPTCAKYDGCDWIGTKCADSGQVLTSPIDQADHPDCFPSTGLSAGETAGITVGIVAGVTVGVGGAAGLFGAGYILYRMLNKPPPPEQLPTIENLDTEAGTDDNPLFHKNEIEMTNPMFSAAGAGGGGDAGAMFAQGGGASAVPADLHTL

In the case of N[C@H]1C(O)O[C@H](CO)[C@@H](O)[C@@H]1O (stereo partly drawn) [D-glucosamine], the “Inhibition of Acanthamoeba binding to Man-BSA” value [1] is reported as “did not inhibit” and the “Toxicity to the epithelium” value [2] is reported as “Toxic”.

In the case of N[C@@H]1C(O)O[C@H](CO)[C@@H](O)[C@@H]1O (stereo partly drawn) [D-mannosamine], the “Inhibition of Acanthamoeba binding to Man-BSA” value [1] is reported as “did not inhibit”, the “Inhibition of amoebic binding to Man-BSA / affinity of amoebic lectin” value [1] is reported as “did not inhibit” and the “Inhibition of amoeba-induced CPE” value [3] is reported as “did not inhibit”. For the same compound, the “Toxicity to the epithelium” value [2] was “Toxic”.

In the case of CC(=O)N[C@H]1C(O)O[C@H](CO)[C@@H](O)[C@@H]1O (stereo partly drawn) [N-acetyl-D-glucosamine], the “Inhibition of amoebic binding to Man-BSA / affinity of amoebic lectin” value ([1]; listed as GlcNAc) is reported as “weak inhibitor”, the inhibition at 50000 µM ([1]; read-out: Inhibition of binding, % at indicated conc.) is reported as 50% and the inhibition at 310 µM ([3]; Acanthamoeba, in Oryctolagus cuniculus, at 0.31 mM, read-out: Inhibition of cytopathic effect (% inhib. at indicated conc.)) is reported as 60%. The “Inhibition of amoeba-induced CPE” value ([3]; listed as GlcNAc) was “inhibits CPE; also recorded: potent inhibitor; also recorded: nearly identical”, the “Attachment of cell layer to culture dish” value ([3]; primary and immortalized cultures, entire assay period of 28 hours) was “remained firmly adhered” and the “Amoeba-induced cytolysis of corneal epithelial cells (microscopy, words)” value ([3]; saccharide present in media) was “little evidence of cytolysis”. The “Inhibition of amoeba-induced CPE” value [4] was “inhibited”, the “CPE-inducing activity of ACM produced with saccharide, after removal of saccharide by Centricon filtration” value ([5]; saccharide 50 mM) was “did not have CPE-inducing activity” and the “CPE-inducing activity of ACM produced in SFB containing the saccharide” value ([5]; saccharide 50 mM in medium used to produce ACM) was “did not induce CPE”. For the same compound, the “Inhibition of ACM-induced CPE” value ([5]; sugar (50 mM) added to the ACM after it was produced) was “not inhibited”, the “Percentage specific 51Cr release” value ([6]; Acanthamoeba 1×10^6 parasites/ml in media containing the saccharide, media alone about 100) was about 80% and the “Inhibition of amoeba-induced cytolysis” value ([6]; fifty millimolar, 51Cr release) was 10-20%. The “Adhesion of amoebae to the cell monolayer in presence of saccharide” value [7] was “poor inhibitor; also recorded: adhered tightly”.

O=S(=O)(F)Cc1ccccc1 [PMSF, phenylmethylsulfonyl fluoride] was tested, and the “Susceptibility of component P1 (230 kD) to inhibitor” value [8] was “susceptible”, the “Susceptibility of component P2 (97 kD) to inhibitor” value [8] was “susceptible” and the “Susceptibility of component P3 (80 kD) to inhibitor” value [8] was “resistant”. The “Susceptibility of component P4 (55 kD) to inhibitor” value [8] was “susceptible”, the “Susceptibility of component E1 (93 kD) to inhibitor” value [9] was “resistant” and the “Susceptibility of component E2 (63 kD) to inhibitor” value [9] was “resistant”.

Source: US6037333A, “Microbe-inhibiting compositions” (Trustees of Tufts College, priority 1998, dated 2000)
